Values quoted from earlier work as cited in patent US20250144314A1, “VITAMIN K1 INJECTION DEVICE KIT” (ORBICULAR PHARMACEUTICAL TECHNOLOGIES PRIVATE LIMITED, priority 2022, published 2025).

Details: estimate

absorbed vitamin K excreted from the body: over 60%
SMILES: CC1=C(C/C=C(\C)CCC[C@H](C)CCC[C@H](C)CCCC(C)C)C(=O)c2ccccc2C1=O [vitamin K, Phytonadione]
